Assay [1] relates to cells from the thymus of normal BALB/c mice (thymocyte proliferation). Briefly: comitogen-induced thymocyte proliferation procedure (LAF). Conditions: percent change in counts per minute from non-drug treated controls; for percent change in thymocyte proliferation (counts per minute) versus untreated control at 0.01 µM / percent change in thymocyte proliferation (counts per minute) versus untreated control at 0.1 µM: Mus musculus, 72 h, 72 h culture with PHA and IL-1; for percent change in thymocyte proliferation (counts per minute) versus untreated control at 0.01 µM: read-out: Percentage Inhibition in LAF Assay at 10 nM concentration, Analogs; for percent change in thymocyte proliferation (counts per minute) versus untreated control at 0.1 µM: read-out: Percentage Inhibition in LAF Assay at 100 nM concentration, Analogs. The assay is classed as cell-based. The method, then:
Briefly, cells from the thymus of normal BALB/c mice were cultured for 72 hours with PHA and IL-1 and pulsed with tritiated thymidine during the last six hours. Cells are cultured with and without various concentrations of rapamycin, cyclospofin A, or test compound. Cells are harvested and incorporated; radioactivity is determined. Inhibition of lymphoproliferation is assessed in percent change in counts per minute from non-drug treated controls.

Assay [2] relates to pinch skin graft from male BALB/c donors transplanted to male C3H recipients. Put plainly: skin graft assay (survival time of pinch skin graft). The assay is classed as in vivo, mouse (BALB/c donors. Conditions: intraperitoneally once daily for 6 consecutive days; rejection = 95% area necrosis or suture line off; typically rejected within 6-7 days without immunosuppressive agent. The method, then:
The second in vivo test procedure is designed to determine the survival time of pinch skin graft from male BALB/c donors transplanted to male C3H recipients. The method is adapted from Billingham R. E. and Medawar P. B., J. Exp. Biol. 28:385-402, (1951). Briefly, a pinch skin graft from the donor is grafted on the dorsum of the recipient as an allograft and an isograft is used as control in the same region. The recipients are treated with the test compound, intraperitoneally once daily for 6 consecutive days. Untreated recipients serve as rejection control. The graft is monitored daily and observations are recorded until the graft becomes 95% area necrosis or the suture line is off. This is considered as the rejection day. The graft survival time is one day before the rejection day. The mean graft survival time (number of days ±S.D.) of the drug treatment group is compared with the control group.

Assay [3] concerns formation of IgE-like antibodies. As to conditions: cited from earlier work.
The subject of assay [4] is experimental allergic encephalomyelitis model, a model for multiple sclerosis. Conditions: in vivo; cited from earlier work.
The subject of the next assay is Candida albicans. As to conditions: particularly against Candida albicans, both in vitro and in vivo; cited from earlier work.
For assay [5] the following is noted: alone or in combination with picibanil; cited from earlier work.
For assay [6], the system named is adjuvant arthritis model, a model for rheumatoid arthritis. As to conditions: in vivo; cited from earlier work.

Where “and” joins values, the source holds several entries; their conditions need not be identical. Equal entries are not always repeated. Structures can show the parent of a compound that is named as a salt.

In the case of `CO[C@H]1C[C@@H]2CC[C@@H](C)[C@@](O)(O2)C(=O)C(=O)N2CCCC[C@H]2C(=O)O[C@H]([C@H](C)C[C@@H]2CC[C@@H](OS(=O)(=O)c3ccc(C)cc3)[C@H](OC)C2)CC(=O)[C@H](C)/C=C(\C)[C@@H](OC(=O)CN(C)C)[C@@H](OC)C(=O)[C@H](C)C[C@H](C)/C=C/C=C/C=C/1C` [Example 1, Rapamycin 31-Ester With N,N-dimethylglycine HCl Salt 42-Ester With p-toluenesulfonic Acid], the percent change in thymocyte proliferation (counts per minute) versus untreated control at 0.01 µM in assay [1] (10 nM) was -6%. The percent change in thymocyte proliferation (counts per minute) versus untreated control at 0.1 µM in assay [1] (100 nM) was -74%.

`CO[C@H]1C[C@@H]2CC[C@@H](C)[C@@](O)(O2)C(=O)C(=O)N2CCCC[C@H]2C(=O)O[C@H]([C@H](C)C[C@@H]2CC[C@@H](OC(C)=O)[C@H](OC)C2)CC(=O)[C@H](C)/C=C(\C)[C@@H](OC(=O)CN(C)C)[C@@H](OC)C(=O)[C@H](C)C[C@H](C)/C=C/C=C/C=C/1C` [Example 2, Rapamycin 31-Ester With N,N-dimethylglycine HCl Salt 42-Ester With Acetic Acid]: the percent change in thymocyte proliferation (counts per minute) versus untreated control at 0.01 µM in assay [1] (10 nM) was -59%. Further, in assay [1] (100 nM), the percent change in thymocyte proliferation (counts per minute) versus untreated control at 0.1 µM was -96%.

Consider `CO[C@H]1C[C@@H]2CC[C@@H](C)[C@@](O)(O2)C(=O)C(=O)N2CCCC[C@H]2C(=O)O[C@H]([C@H](C)C[C@@H]2CC[C@@H](OC(=O)Nc3ccccc3)[C@H](OC)C2)CC(=O)[C@H](C)/C=C(\C)[C@@H](OC(=O)CN(C)C)[C@@H](OC)C(=O)[C@H](C)C[C@H](C)/C=C/C=C/C=C/1C` [Example 3, Rapamycin 31-Ester With N,N-dimethylglycine HCl Salt 42-Ester With Phenylcarbamic Acid], for which the percent change in thymocyte proliferation (counts per minute) versus untreated control at 0.01 µM in assay [1] (10 nM) is -14%. In assay [1] (100 nM), the percent change in thymocyte proliferation (counts per minute) versus untreated control at 0.1 µM is -82%.

For the compound `CO[C@H]1C[C@@H]2CC[C@@H](C)[C@@](O)(O2)C(=O)C(=O)N2CCCC[C@H]2C(=O)O[C@H]([C@H](C)C[C@@H]2CC[C@@H](OC(=O)Nc3ccc(F)cc3)[C@H](OC)C2)CC(=O)[C@H](C)/C=C(\C)[C@@H](OC(=O)CN(C)C)[C@@H](OC)C(=O)[C@H](C)C[C@H](C)/C=C/C=C/C=C/1C` [Example 4, Rapamycin 31-Ester With N,N-dimethylglycine HCl Salt 41-Ester With 4-fluorophenyl Carbamic Acid], the percent change in thymocyte proliferation (counts per minute) versus untreated control at 0.01 µM in assay [1] (10 nM) is -38%. Besides, the percent change in thymocyte proliferation (counts per minute) versus untreated control at 0.1 µM in assay [1] (100 nM) was -94%. For the same compound, the “Skin Graft Assay, Analogs (mean graft survival time, days ± SD)” value in assay [2] amounted to 8.17 ± 0.41 days.

On to `CO[C@H]1C[C@@H]2CC[C@@H](C)[C@@](O)(O2)C(=O)C(=O)N2CCCC[C@H]2C(=O)O[C@H]([C@H](C)C[C@@H]2CC[C@@H](OC(=O)NS(=O)(=O)c3ccccc3)[C@H](OC)C2)CC(=O)[C@H](C)/C=C(\C)[C@@H](OC(=O)CN(C)C)[C@@H](OC)C(=O)[C@H](C)C[C@H](C)/C=C/C=C/C=C/1C` [Example 5, Rapamycin 31-Ester With N,N-dimethylglycine HCl Salt 42-Ester With Phenylsulfonyl Carbamic Acid], for which the percent change in thymocyte proliferation (counts per minute) versus untreated control at 0.01 µM in assay [1] (10 nM) was 1%. In addition, the percent change in thymocyte proliferation (counts per minute) versus untreated control at 0.1 µM in assay [1] (100 nM) is -35%. Moreover, the “Skin Graft Assay, Analogs (mean graft survival time, days ± SD)” value in assay [2] is 10.00 ± 0.57 days.

Regarding `CO[C@H]1C[C@@H]2CC[C@@H](C)[C@@](O)(O2)C(=O)C(=O)N2CCCC[C@H]2C(=O)O[C@H]([C@H](C)C[C@@H]2CC[C@@H](O)[C@H](OC)C2)CC(=O)[C@H](C)/C=C(\C)[C@@H](OC(=O)CN(C)C)[C@@H](OC)C(O)[C@H](C)C[C@H](C)/C=C/C=C/C=C/1C` (stereo partly drawn) [Example 6, 33-Deoxy-33-hydroxyrapamycin 31-Ester With N,N-dimethylglycine HCl Salt], the percent change in thymocyte proliferation (counts per minute) versus untreated control at 0.01 µM in assay [1] (10 nM) is -13%. In assay [1] (100 nM), the percent change in thymocyte proliferation (counts per minute) versus untreated control at 0.1 µM was -76%. Besides, the “Skin Graft Assay, Analogs (mean graft survival time, days ± SD)” value in assay [2] amounted to 9.50 ± 1.22 days.

With `CO[C@H]1C[C@@H]2CC[C@@H](C)[C@@](O)(O2)C(=O)C(=O)N2CCCC[C@H]2C(=O)O[C@H]([C@H](C)C[C@@H]2CC[C@@H](OS(=O)(=O)c3cccc4cccnc34)[C@H](OC)C2)CC(=O)[C@H](C)/C=C(\C)[C@@H](OC(=O)CN(C)C)[C@@H](OC)C(=O)[C@H](C)C[C@H](C)/C=C/C=C/C=C/1C` [Example 7, Rapamycin 31-Ester With N,N-dimethylglycine 42-Ester With 8-quinolinesulfonic Acid], the percent change in thymocyte proliferation (counts per minute) versus untreated control at 0.01 µM in assay [1] (10 nM) is -62%. The percent change in thymocyte proliferation (counts per minute) versus untreated control at 0.1 µM in assay [1] (100 nM) is -94%. Also, the “Skin Graft Assay, Analogs (mean graft survival time, days ± SD)” value in assay [2] is 9.33 ± 1.22 days.

Turning to `CO[C@H]1C[C@@H]2CC[C@@H](C)[C@@](O)(O2)C(=O)C(=O)N2CCCC[C@H]2C(=O)O[C@H]([C@H](C)C[C@@H]2CC[C@@H](OS(=O)(=O)c3cccc4c(N(C)C)cccc34)[C@H](OC)C2)CC(=O)[C@H](C)/C=C(\C)[C@@H](OC(=O)CN(C)C)[C@@H](OC)C(=O)[C@H](C)C[C@H](C)/C=C/C=C/C=C/1C` [Example 8, Rapamycin 31-Ester With N,N-dimethylglycine 42-Ester With 5-(dimethylamino)naphthalene-1-sulfonic Acid], in assay [1] (10 nM), the percent change in thymocyte proliferation (counts per minute) versus untreated control at 0.01 µM was found to be 13%. In assay [1] (100 nM), the percent change in thymocyte proliferation (counts per minute) versus untreated control at 0.1 µM is -54%.

Turning to `CO[C@H]1C[C@@H]2CC[C@@H](C)[C@@](O)(O2)C(=O)C(=O)N2CCCC[C@H]2C(=O)O[C@H]([C@H](C)C[C@@H]2CC[C@@H](O)[C@H](OC)C2)CC(=O)[C@H](C)/C=C(\C)[C@@H](O)[C@@H](OC)C(=O)[C@H](C)C[C@H](C)/C=C/C=C/C=C/1C` [Rapamycin], the “Percentage Inhibition in LAF Assay at 10 nM concentration, Rapamycin” value in assay [1] (10 nM, rapamycin comparator) was -85% and -89%. For the same compound, the “Percentage Inhibition in LAF Assay at 100 nM concentration, Rapamycin” value in assay [1] (100 nM, rapamycin comparator, 0.1 µM) was -97% and -96% and -94% and -95%. The “inhibition of the formation of IgE-like antibodies” value in assay [3] is on record as “effectively inhibited”. The “effect in the experimental allergic encephalomyelitis model” value in assay [4] is given as “effective”. For the same compound, the antifungal activity result in the assay with Candida albicans is “antifungal activity”. Also, in assay [5], the antitumor activity result is “antitumor activity”. In addition, the “effect in the adjuvant arthritis model” value in assay [6] is “effective”.

These data come from patent publication US5349060A, “Rapamycin 31-ester with N,N-dimethylglycine derivatives useful as immunosuppressive agents” (American Home Products Corporation, priority 1993, dated 1994).
